# Columns and labels:
# [1] = biological target: T1, Somatostatin receptor type 4 (Homo sapiens, UniProt P31391); experiment: Displacement of [125I]tyr11-SRIF from human sst4 receptor after 60 mins by liquid scintillation counting method
# [2] = biological target: T2, Somatostatin receptor type 2 (Homo sapiens, UniProt P30874); experiment: Displacement of [125I]tyr11-SRIF from human sst2 receptor after 60 mins by liquid scintillation counting method
# [3] = biological target: T2, Somatostatin receptor type 2; experiment: Binding affinity to human sst2 receptor
# [4] = biological target: T1, Somatostatin receptor type 4; experiment: Binding affinity to human sst4 receptor
# [5] = biological target: T1, Somatostatin receptor type 4; experiment: Displacement of [125I]-SRIF14 from human sst4 receptor
# T2 sequence (P30874 whole entry): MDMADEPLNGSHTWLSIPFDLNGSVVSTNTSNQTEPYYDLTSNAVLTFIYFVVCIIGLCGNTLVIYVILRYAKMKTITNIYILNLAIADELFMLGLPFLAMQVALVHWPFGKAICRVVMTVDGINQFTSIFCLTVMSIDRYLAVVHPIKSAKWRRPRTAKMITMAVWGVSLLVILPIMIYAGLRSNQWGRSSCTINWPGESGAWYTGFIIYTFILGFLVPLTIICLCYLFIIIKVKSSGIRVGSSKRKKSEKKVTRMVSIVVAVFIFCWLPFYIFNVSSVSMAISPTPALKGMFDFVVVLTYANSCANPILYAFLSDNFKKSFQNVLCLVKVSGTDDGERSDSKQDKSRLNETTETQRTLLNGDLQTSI
# T1 sequence (P31391 whole entry): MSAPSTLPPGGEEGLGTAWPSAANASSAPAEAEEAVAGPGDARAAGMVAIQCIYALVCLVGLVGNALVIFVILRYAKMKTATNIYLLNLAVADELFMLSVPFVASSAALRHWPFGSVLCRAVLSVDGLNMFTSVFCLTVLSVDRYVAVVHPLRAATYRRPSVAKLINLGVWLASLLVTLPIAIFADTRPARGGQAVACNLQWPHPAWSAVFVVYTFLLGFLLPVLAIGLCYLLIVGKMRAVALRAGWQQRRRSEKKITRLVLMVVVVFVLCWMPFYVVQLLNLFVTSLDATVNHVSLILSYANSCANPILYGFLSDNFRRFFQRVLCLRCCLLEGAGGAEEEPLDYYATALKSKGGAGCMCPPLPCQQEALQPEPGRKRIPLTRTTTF
SMILES,Ki [1],Ki [2],Ki [3],Ki [4],Ki [5]
NCCCc1cc(Cl)cc2c(=O)cc(CCc3cccc4ccccc34)oc12,1.17 µM,2.66 µM,–,–,–
NCCCCCOc1ccccc1OCCc1c[nH]c2ccccc12,–,–,4.69 µM,2020 nM,–
CC(C)CC[C@]1(Cc2ccccc2)NC=C([C@@]2(Cc3ccccc3)NC=C([C@]3(CCCN)NC=C([C@@]4(CC(C)C)NC=C(Cc5ccccc5)C4=O)C3=O)C2=O)C1=O,–,–,–,–,2050 nM
NCCCc1cc(Cl)cc2c1OC(CCc1cccc3ccccc13)CC2=O (racemic),7.09 µM,6.85 µM,–,–,–

# From ChEMBL document CHEMBL3779780, “Chroman-4-one and chromone based somatostatin β-turn mimetics” (Eur J Med Chem, 2016)
